In patent US7728146B2, “Enzyme inhibitors” (Probiodrug AG, priority 2006, dated 2010):
pIC50: −log10 of the molar value. Like-named read-outs stand apart in the source and are kept apart here.

Biological target: DP IV (Homo sapiens, UniProt P27487)
Test: DP IV inhibition IC50, parallel-synthesis compounds tested directly following synthesis (without purification)
Format: biochemical
Design: IC50 DP4; other: tested directly following parallel synthesis, without purification; compounds of formula (Ib) from parallel synthesis, tested directly following synthesis
Summary of the method: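 IC50 came from a 4-parameter fit of residual activity (linear 405 nm slopes for pNA release over ~18 min, relative to solvent-only wells). Gly-Pro-pNA was the substrate, cleaved by porcine kidney or recombinant human DP IV at room temperature in HEPES with 5% DMSO; duplicate 1:2 series started at 100 μM final.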

[1] = tested directly following parallel synthesis, without purification, read-out: IC50 DP4

pIC50 [1] | pIC50 (DP IV inhibition, compounds of formula (Ib) from parallel synthesis, tested directly following synthesis (without purification), read-out: IC50) | SMILES
7.00 |  | NCc1c(-c2ccc(Cl)cc2Cl)ncn1Cc1ccc(F)c(F)c1 [Example 49a, C-[5-(2,4-Dichloro-phenyl)-3-(3,4-difluoro-benzyl)-3H-imid-azol-4-yl]-methyl-amine]
7.00 |  | CCOc1ccccc1Cn1cnc(-c2ccc(Cl)cc2Cl)c1CN [Example 50a, C-[5-(2,4-Dichloro-phenyl)-3-(2-ethoxy-benzyl)-3H-imid-azol-4-yl]-methyl-amine]
5.43 |  | NCc1c(-c2ccc(Cl)cc2Cl)ncn1Cc1ccccc1C(F)(F)F [Example 51a, C-[5-(2,4-Dichloro-phenyl)-3-(2-tri-fluoromethyl-benzyl)-3H-imid-dazol-4-yl]-methyl-amine]
5.55 |  | NCc1c(-c2ccc(Cl)cc2Cl)ncn1Cc1cccc(Cl)c1Cl [Example 52a, C-[3-(2,3-Dichloro-benzyl)-5-(2,4-dichloro-phenyl)-3H-imid-azol-4-yl]-methyl-amine]
5.72 |  | NCc1c(-c2ccc(Cl)cc2Cl)ncn1Cc1ccc(Cl)cc1 [Example 54a, C-[3-(4-Chloro-benzyl)-5-(2,4-dichloro-phenyl)-3H-imid-azol-4-yl]-methyl-amine]
 | 5.34 | NCc1c(-c2ccc(Cl)cc2Cl)ncn1Cc1ccc(F)cc1F [Example 54b, C-[5-(2,4-dichloro-phenyl)-3-(2,4-difluoro-benzyl)-3H-imidazol-4-yl]-methylamine]
7.00 |  | NCc1c(-c2ccc(Cl)cc2Cl)ncn1Cc1ccccc1OC(F)(F)F [Example 55a, C-[5-(2,4-Dichloro-phenyl)-3-(2-tri-fluorometh-oxy-benzyl)-3H-imid-azol-4-yl]-methyl-amine]
5.55 |  | Cc1ccc(Cn2cnc(-c3ccc(Cl)cc3Cl)c2CN)cc1 [Example 56a, C-[5-(2,4-Dichloro-phenyl)-3-(4-methyl-benzyl)-3H-imid-azol-4-yl]-methyl-amine]
5.04 |  | NCc1c(-c2ccc(Cl)cc2Cl)ncn1Cc1ccc(Cl)cc1Cl [Example 57a, C-[3-(2,4-Dichloro-benzyl)-5-(2,4-dichloro-phenyl)-3H-imid-azol-4-yl]-methyl-amine]
5.72 |  | NCc1c(-c2ccc(Cl)cc2Cl)ncn1Cc1ccc(Cl)c(Cl)c1 [Example 58a, C-[3-(3,4-Dichloro-benzyl)-5-(2,4-dichloro-phenyl)-3H-imid-azol-4-yl]-methyl-amine]
4.60 |  | CCn1cnc(-c2ccc(Cl)cc2Cl)c1CN [Example 59a, C-[5-(2,4-Dichloro-phenyl)-3-eth-yl-3H-imid-azol-4-yl]-methyl-amine]
5.55 |  | NCc1c(-c2ccc(Cl)cc2Cl)ncn1Cc1c(Cl)cccc1Cl [Example 60a, C-[3-(2,6-Dichloro-benzyl)-5-(2,4-dichloro-phenyl)-3H-imid-azol-4-yl]-methyl-amine]
5.72 |  | NCc1c(-c2ccc(Cl)cc2Cl)ncn1Cc1cc(F)ccc1F [Example 61a, C-[5-(2,4-Dichloro-phenyl)-3-(2,5-difluoro-benzyl)-3H-imid-azol-4-yl]-methyl-amine]
5.72 |  | NCc1c(-c2ccc(Cl)cc2Cl)ncn1Cc1ccc(F)cc1Cl [Example 63a, C-[3-(2-Chloro-4-fluoro-benzyl)-5-(2,4-di-chloro-phenyl)-3H-imid-azol-4-yl]-methyl-amine]
4.57 |  | Cn1cccc1Cn1cnc(-c2ccc(Cl)cc2Cl)c1CN [Example 64a, C-[5-(2,4-Dichloro-phenyl)-3-(1-methyl-1H-pyrrol-2-yl-methyl)-3H-imid-azol-4-yl]-methyl-amine]
4.37 |  | Cc1ccc(-c2ncn(Cc3ccsc3)c2CN)c(C)c1 [Example 67a, C-[5-(2,4-Dimethyl-phenyl)-3-thio-phen-3-yl-methyl-3H-imid-azol-4-yl]-methyl-amine]
4.42 |  | Cc1ccc(-c2ncn(Cc3cc(Br)ccc3F)c2CN)c(C)c1 [Example 68a, C-[3-(5-Bro-mo-2-fluoro-benzyl)-5-(2,4-dimethyl-phenyl)-3H-imid-azol-4-yl]-methyl-amine]
4.39 |  | Cc1ccc(-c2ncn(Cc3ccccc3)c2CN)c(C)c1 [Example 69a, C-[3-Benzyl-5-(2,4-di-methyl-phenyl)-3H-imid-azol-4-yl]-methyl-amine]
4.79 |  | CCOc1ccccc1Cn1cnc(-c2ccc(C)cc2C)c1CN [Example 70a, C-[5-(2,4-Dimethyl-phenyl)-3-(2-ethoxy-benzyl)-3H-imid-azol-4-yl]-methyl-amine]

pIC50 [1] | pIC50 (DP IV inhibition, compounds of formula (Ib) from parallel synthesis, tested directly following synthesis (without purification), read-out: IC50) | SMILES
4.51 |  | COc1ccc(-c2ncn(Cc3cc(Br)ccc3F)c2CN)c(C)c1 [Example 71a, C-[3-(5-Bro-mo-2-fluoro-benzyl)-5-(4-meth-oxy-2-methyl-phenyl)-3H-imid-azol-4-yl]-methyl-amine]
4.93 |  | NCc1c(-c2ccc(F)cc2F)ncn1Cc1ccco1 [Example 72a, C-[5-(2,4-Difluoro-phenyl)-3-furan-2-ylmethyl-3H-imidazol-4-yl]-methylamine]
4.57 |  | NCc1c(-c2ccc(F)cc2F)ncn1Cc1ccccc1Cl [Example 73a, C-[3-(2-Chloro-benzyl)-5-(2,4-difluoro-phenyl)-3H-imid-azol-4-yl]-methyl-amine]
4.35 |  | NCc1c(-c2ccc(F)cc2F)ncn1Cc1ccc(F)cc1 [Example 74a, C-[5-(2,4-Difluoro-phenyl)-3-(4-fluoro-benzyl)-3H-imid-azol-4-yl]-methyl-amine]
4.54 |  | NCc1c(-c2ccc(F)cc2F)ncn1Cc1cccc(C(F)(F)F)c1 [Example 75a, C-[5-(2,4-Difluoro-phenyl)-3-(3-tri-fluoromethyl-benzyl)-3H-imid-azol-4-yl]-methyl-amine]
4.39 |  | NCc1c(-c2ccc(F)cc2F)ncn1Cc1ccc(F)cc1F [Example 76a, C-[3-(2,4-Difluoro-benzyl)-5-(2,4-difluoro-phenyl)-3H-imid-azol-4-yl]-methyl-amine]
4.61 |  | COc1cccc(Cn2cnc(-c3ccc(F)cc3F)c2CN)c1 [Example 77a, C-[5-(2,4-Difluoro-phenyl)-3-(3-methoxy-benzyl)-3H-imid-azol-4-yl]-methyl-amine]
4.34 |  | NCc1c(-c2ccc(F)cc2F)ncn1Cc1cccc(F)c1 [Example 78a, C-[5-(2,4-Difluoro-phenyl)-3-(3-fluoro-benzyl)-3H-imid-azol-4-yl]-methyl-amine]
4.49 |  | NCc1c(-c2ccc(F)cc2F)ncn1Cc1cc(Br)ccc1F [Example 79a, C-[3-(5-Bro-mo-2-fluoro-benzyl)-5-(2,4-difluoro-phenyl)-3H-imid-azol-4-yl]-methyl-amine]
4.70 |  | NCc1c(-c2ccc(F)cc2F)ncn1Cc1ccccc1 [Example 80a, C-[3-Benzyl-5-(2,4-di-fluoro-phenyl)-3H-imid-azol-4-yl]-methyl-amine]
4.33 |  | NCc1c(-c2ccc(F)cc2F)ncn1Cc1ccc2c(c1)OCO2 [Example 81a, C-[3-Ben-zo[1,3]di-oxol-5-yl-methyl-5-(2,4-difluoro-phenyl)-3H-imid-azol-4-yl]-methyl-amine]
4.84 |  | CCOc1ccccc1Cn1cnc(-c2ccc(F)cc2F)c1CN [Example 82a, C-[5-(2,4-Difluoro-phenyl)-3-(2-ethoxy-benzyl)-3H-imid-azol-4-yl]-methyl-amine]
4.57 |  | CC(C)(C)Cn1cnc(-c2ccc(F)cc2F)c1CN [Example 83a, C-[5-(2,4-Difluoro-phenyl)-3-(2,2-dimethyl-propyl)-3H-imid-azol-4-yl]-methyl-amine]
5.04 |  | NCc1c(-c2ccc(F)cc2F)ncn1Cc1ccccc1OC(F)(F)F [Example 84a, C-[5-(2,4-Difluoro-phenyl)-3-(2-trifluoromethoxy-benzyl)-3H-imidazol-4-yl]-methylamine]
4.44 |  | NCc1c(-c2ccc(F)cc2F)ncn1Cc1cc(F)ccc1F [Example 85a, C-[3-(2,5-Difluoro-benzyl)-5-(2,4-difluoro-phenyl)-3H-imid-azol-4-yl]-methyl-amine]
4.49 |  | NCc1c(-c2ccc(F)cc2F)ncn1Cc1ccccc1F [Example 86a, C-[5-(2,4-Difluoro-phenyl)-3-(2-fluoro-benzyl)-3H-imid-azol-4-yl]-methyl-amine]
4.60 |  | NCc1c(-c2ccc(F)cc2F)ncn1Cc1ccc(F)cc1Cl [Example 87a, C-[3-(2-Chloro-4-fluoro-benzyl)-5-(2,4-difluoro-phenyl)-3H-imid-azol-4-yl]-methyl-amine]
4.53 |  | NCc1c(-c2ccc(F)cc2F)ncn1Cc1ccccn1 [Example 88a, C-[5-(2,4-Difluoro-phenyl)-3-pyri-din-2-yl-methyl-3H-imid-azol-4-yl]-methyl-amine]

SMILES | pIC50 [1] | pIC50 (DP IV inhibition, compounds of formula (Ib) from parallel synthesis, tested directly following synthesis (without purification), read-out: IC50)
NCc1c(-c2ccc(Cl)cc2Cl)ncn1Cc1ccc2c(c1)OCO2 [Example 48a, C-[3-Ben-zo[1,3]di-oxol-5-yl-methyl-5-(2,4-dichloro-phenyl)-3H-imid-azol-4-yl]-methyl-amine] | 7.00 | 
CC(C)(C)Cn1cnc(-c2ccc(Cl)cc2Cl)c1CN [Example 53a, C-[5-(2,4-Dichloro-phenyl)-3-(2,2-dimethyl-propyl)-3H-imid-azol-4-yl]-methyl-amine] | 6.00 | 
NCc1c(-c2ccc(Cl)cc2Cl)ncn1Cc1ccccc1F [Example 62a, C-[5-(2,4-Dichloro-phenyl)-3-(2-fluoro-benzyl)-3H-imid-azol-4-yl]-methyl-amine] | 7.00 | 
NCc1c(-c2ccc(Cl)cc2Cl)ncn1Cc1ccccn1 [Example 65a, C-[5-(2,4-Dichloro-phenyl)-3-pyri-din-2-yl-methyl-3H-imid-azol-4-yl]-methyl-amine] | 5.72 | 
NCc1c(-c2ccc(Cl)cc2Cl)ncn1Cc1cccnc1 [Example 66a, C-[5-(2,4-Dichloro-phenyl)-3-pyri-din-3-yl-methyl-3H-imid-azol-4-yl]-methyl-amine] | 7.00 | 
